According to US20230310573A1, “Stabilized Vaccine Compositions” (priority 2020, published 2023):

Experiments:
[1] = target: ectodomain of H1N1 A/Brisbane/59/2007 (SEQ ID NO: 7) (Influenza A virus, UniProt P03452); assay: Heat stress of influenza A HA ectodomain, trimer and monomer content by analytical SEC; format: physicochemical; settings: 6 weeks at 40 degree Celsius; 1:6 HA trimer:compound ratio
[2] = target: T1, UFV170091 (HA of B/Massachussetts/2/12) (Influenza B virus, UniProt P03460); assay: Melting temperature (Tm50) of influenza B HA trimer by DSF; format: physicochemical; settings: 1:6 HA trimer:compound ratio
T1 construct: Ectodomain of wild type HA of B/Massachussetts/2/12 fused to a foldon domain at the C-terminus; His-tag (C); made in house; host or cells: ExpiCHO

[3] = target: T2, UFV180300 (HA of B/Colorado/06/2017) (Influenza B virus, UniProt P03460); assay: as above; format: physicochemical; settings: 1:6 HA trimer:compound ratio
T2 construct: SortA (sortase) tag (C); His-tag (C); made in house; host or cells: ExpiCHO

[4] = target: UFV180933 (HA of B/Brisbane/60/08) (Influenza B virus, UniProt P03460); format: cell-based; settings: 1:90 HA trimer:compound ratio

| SMILES | trimer content after heat stress (SEC) [1] | increase of the Tm (DSF) [2] [°C] | increase of the Tm (DSF) [3] [°C] | monomer and trimer content in supernatant (SEC) [4] |
| --- | --- | --- | --- | --- |
| N#CCCCn1c(CN2C(=O)C3(CN(C(=O)C4(O)CC4)C3)c3ccccc32)cc2cc(Cl)ccc21 [Compound XV, 4-[5-chloro-2-[[1-(1-hydroxycyclopropanecarbonyl)-2′-oxo-spiro[azetidine-3,3′-indoline]-1′-yl]methyl]indol-1-yl]butanenitrile] | preserved the trimer content | – | – | – |
| c1ccc(CN2CCC(Nc3ccccc3)(c3ccccc3)CC2)cc1 [XXVII, 1-benzyl-N,4-diphenyl-piperidin-4-amine] | – | 0.5 | 1 | hardly monomer and mostly trimer |
